Common to all, as to assay type: biochemical
In test [1] the test system is β-galactosidase of Bacillus stearothermophilus HRI strains, whole cell suspension. The test can be described thus: β-galactosidase assay, toluene-treated whole cell suspension, ONPG or lactose as substrate. The settings on record: for Km: whole cell suspension, pH 7.0, 65° C. As for the experimental part:
The cells are shaken at room temperature for about 5 minutes, and then harvested by centrifugation at 6000 g for 20 minutes in an MSE "Hi Spin 21" centrifuge prior to washing with buffer. […] The relation of Harris and Kornberg (Proc. Roy. Soc. Lond. B. 1972, 182, 159) is used to determine the cell density, 0.33 mg. dry wt. of B. stearothermophilus corresponding to an absorbance of 1.0 at 680 n.m. The assay used is based on that of Lederberg (J. […] Assays are carried out at incubation temperature of 65° C. and after the appropriate time interval the reactions are halted by addition of 3 ml aliquots of 0.5 M sodium bicarbonate to each reaction mixture and immediate cooling in an ice bath. The absorbance of the resultant solutions is measured at 410 nm using a Perkin-Elmer 124 double beam spectrophotometer. In the case of whole cell suspensions the assay tubes are centrifuged and in the case of the immobilised cells the mixtures are filtered, to remove cells and polyacrylamide gel respectively prior to measurement of the absorbance. […] The reaction mixtures are incubated for 15 minutes at 65° C., reactions are halted by addition of 4.2% perchloric acid and the solutions are centrifuged. Aliquots of the supernatant solutions are assayed for glucose or galactose. Glucose is estimated by a modification of the method of Trinder (Ann. Clin. […] Ltd.), 0.15 ml peroxidase (Boehringer Corp. Ltd.), 100 mg of 4-aminophenazone and 300 mg of sodium azide) followed by incubation at 37° C. for 10 minutes and absorbance measurement at 515 nm. […] Ltd.) is added, the solutions incubated at 37° C. for 30 minutes and the absorbance again measured at 340 nm.

Test [2] has as its system β-galactosidase of Bacillus stearothermophilus HRI strains (HRI enzyme), purified enzyme. The test can be described thus: β-galactosidase assay, purified enzyme, ONPG or lactose as substrate. The procedure:
The assay used is based on that of Lederberg (J. Bacteriol. 1950, 60, 381), using an assay mixture comprising 2.8 ml of 50 mM sodium phosphate, pH 7.0, and 0.1 ml of 68 mM ONPG. 0.1 ml aliquots of both purified enzyme and toluene-treated cell suspension, and 10 mg. amounts in 2.9 ml of buffer of freeze dried immobilised whole cell preparation are used for the assays. Assays are carried out at incubation temperature of 65° C. and after the appropriate time interval the reactions are halted by addition of 3 ml aliquots of 0.5 M sodium bicarbonate to each reaction mixture and immediate cooling in an ice bath. The absorbance of the resultant solutions is measured at 410 nm using a Perkin-Elmer 124 double beam spectrophotometer. In the case of whole cell suspensions the assay tubes are centrifuged and in the case of the immobilised cells the mixtures are filtered, to remove cells and polyacrylamide gel respectively prior to measurement of the absorbance.
The assay mixture used comprises 0.9 ml of 50 mM sodium phosphate buffer, pH 7.0, 4 ml of lactose (4 g in 100 ml of phosphate buffer), to which 0.1 ml of purified enzyme or cell suspension or 10 mg of gel entrapped cell preparation is added. The reaction mixtures are incubated for 15 minutes at 65° C., reactions are halted by addition of 4.2% perchloric acid and the solutions are centrifuged. Aliquots of the supernatant solutions are assayed for glucose or galactose.
Glucose is estimated by a modification of the method of Trinder (Ann. Clin. Biochem. 1969 6, 24). 1 ml aliquots of the supernatant solutions are assayed by addition to a mixture comprising 1 ml of 0.2% phenol and 3 ml of colour reagent (75 ml 4% (w/v) disodium hydrogen orthophosphate, 225 ml of water, 6 mg of glucose oxidase (Boehringer Corp. Ltd.), 0.15 ml peroxidase (Boehringer Corp. Ltd.), 100 mg of 4-aminophenazone and 300 mg of sodium azide) followed by incubation at 37° C. for 10 minutes and absorbance measurement at 515 nm.
Galactose is estimated as follows: a sample (e.g. 0.2 ml) containing not more than 200 μg/ml of galactose is mixed with 2.5 ml of buffer (4.8 g Na2 HPO4, 0.86g NaH2 PO4 and 0.2 g MgSO4 7H2 O per 200 ml of H2 O) and 0.1 ml of 10 mg/ml of NAD solution and the absorbance is measured at 340 nm. 0.02 ml of galactose dehydrogenase (Boehringer Corp. Ltd.) is added, the solutions incubated at 37° C. for 30 minutes and the absorbance again measured at 340 nm.

Test [3] concerns β-galactosidase of Bacillus stearothermophilus HRI strains, entrapped whole cell preparation. The test is described as follows: β-galactosidase assay, polyacrylamide gel entrapped (immobilised) whole cell preparation, ONPG or lactose as substrate. Particulars: for Km: entrapped whole cell preparation, pH 7.0, 65° C. The procedure: Washed cells which have been toluene treated, as above, are resuspended in an equal volume of 50 mM sodium phosphate buffer, pH 7.0, containing acrylamide (200 g/l) and NN'-methylenebisacrylamide (20 g/l). Ammonium persulphate (2 […]) are added to this suspension which is then allowed to gel, and the gel is disrupted by forcing through a wire mesh, as described by Hjerten (Arch. Biochem. Biophys. […] The disrupted gel is freeze-dried to provide a stock of enzymatically active immobilised whole cell preparation. The assay used is based on that of Lederberg (J. […] Assays are carried out at incubation temperature of 65° C. and after the appropriate time interval the reactions are halted by addition of 3 ml aliquots of 0.5 M sodium bicarbonate to each reaction mixture and immediate cooling in an ice bath. The absorbance of the resultant solutions is measured at 410 nm using a Perkin-Elmer 124 double beam spectrophotometer. In the case of whole cell suspensions the assay tubes are centrifuged and in the case of the immobilised cells the mixtures are filtered, to remove cells and polyacrylamide gel respectively prior to measurement of the absorbance. […] The reaction mixtures are incubated for 15 minutes at 65° C., reactions are halted by addition of 4.2% perchloric acid and the solutions are centrifuged. Aliquots of the supernatant solutions are assayed for glucose or galactose. Glucose is estimated by a modification of the method of Trinder (Ann. Clin. […] Ltd.), 0.15 ml peroxidase (Boehringer Corp. Ltd.), 100 mg of 4-aminophenazone and 300 mg of sodium azide) followed by incubation at 37° C. for 10 minutes and absorbance measurement at 515 nm. […] Ltd.) is added, the solutions incubated at 37° C. for 30 minutes and the absorbance again measured at 340 nm.

The mark [4] stands for this setting: read-out: Michaelis constant (Km) with ONPG as substrate.
Setting [5] is: read-out: Km with lactose as substrate.

Read-outs that look alike come from different tables or passages of the source.

`N[C@@H](CS)C(=O)O` [Cysteine, cysteine]: the “% Activity” value in test [1] (addition at 10 mM final, ONPG as substrate, whole cells, no addition = 100) is on record as 103.7%; in test [2] (addition at 10 mM final, ONPG as substrate, purified enzyme, no addition = 100), 98.1%; in test [3] (addition at 10 mM final, ONPG as substrate, immobilised whole cells, no addition = 100) it was 109.4%.
Regarding `O=[N+]([O-])c1ccccc1O[C@@H]1O[C@H](CO)[C@H](O)[C@H](O)[C@H]1O` [ONPG, orthonitrophenyl-β-D-galactopyranoside, reference compound], the Km in test [1] (setting [4]) worked out at 380 µM; in test [2] (HRI enzyme, measured at 65° C., read-out: Michaelis constant (Km) for ONPG) it was 430 µM; in test [2] (purified enzyme, pH 7.0, 65° C., read-out: Michaelis constant (Km) with ONPG as substrate), 430 µM; in test [3] (setting [4]) it was 260 µM.
As for `OC[C@H]1O[C@@H](O[C@H]2[C@H](O)[C@@H](O)C(O)O[C@@H]2CO)[C@H](O)[C@@H](O)[C@H]1O` (some centres unmarked) [lactose], the Km in test [1] (setting [5]) amounted to 11800 µM; in test [2] (HRI enzyme, measured at 65° C., read-out: Michaelis constant (Km) for lactose), 2100 µM; in test [2] (purified enzyme extract, pH 7.0, 65° C., read-out: Km with lactose as substrate), 2060 µM; in test [3] (setting [5]), 9520 µM.

The record behind these values is patent US4332895A, “Thermal stable beta-galactosidase” (National Research Development Corp., priority 1978, dated 1982).
